According to ChEMBL document CHEMBL4425144, “Discovery and Structural Optimization of N5-Substituted 6,7-Dioxo-6,7-dihydropteridines as Potent and Selective Epidermal Growth Factor Receptor (EGFR) Inhibitors against L858R/T790M Resistance Mutation” (J Med Chem, 2016):
Converted amounts (≈) assume the structure as drawn.

Experiments:
[1] = biological target: Epidermal growth factor receptor (Homo sapiens, UniProt P00533, L858R/T790M); test: Inhibition of EGFR kinase domain L858R/T790M mutant (unknown origin) expressed using baculovirus expression system incubated for 1 hr using Poly(Glu,Tyr) 4:1 by ELISA method
Sequence of Epidermal growth factor receptor (Homo sapiens, UniProt P00533, L858R/T790M) (P00533 25-1210 T790M/L858R limits assumed): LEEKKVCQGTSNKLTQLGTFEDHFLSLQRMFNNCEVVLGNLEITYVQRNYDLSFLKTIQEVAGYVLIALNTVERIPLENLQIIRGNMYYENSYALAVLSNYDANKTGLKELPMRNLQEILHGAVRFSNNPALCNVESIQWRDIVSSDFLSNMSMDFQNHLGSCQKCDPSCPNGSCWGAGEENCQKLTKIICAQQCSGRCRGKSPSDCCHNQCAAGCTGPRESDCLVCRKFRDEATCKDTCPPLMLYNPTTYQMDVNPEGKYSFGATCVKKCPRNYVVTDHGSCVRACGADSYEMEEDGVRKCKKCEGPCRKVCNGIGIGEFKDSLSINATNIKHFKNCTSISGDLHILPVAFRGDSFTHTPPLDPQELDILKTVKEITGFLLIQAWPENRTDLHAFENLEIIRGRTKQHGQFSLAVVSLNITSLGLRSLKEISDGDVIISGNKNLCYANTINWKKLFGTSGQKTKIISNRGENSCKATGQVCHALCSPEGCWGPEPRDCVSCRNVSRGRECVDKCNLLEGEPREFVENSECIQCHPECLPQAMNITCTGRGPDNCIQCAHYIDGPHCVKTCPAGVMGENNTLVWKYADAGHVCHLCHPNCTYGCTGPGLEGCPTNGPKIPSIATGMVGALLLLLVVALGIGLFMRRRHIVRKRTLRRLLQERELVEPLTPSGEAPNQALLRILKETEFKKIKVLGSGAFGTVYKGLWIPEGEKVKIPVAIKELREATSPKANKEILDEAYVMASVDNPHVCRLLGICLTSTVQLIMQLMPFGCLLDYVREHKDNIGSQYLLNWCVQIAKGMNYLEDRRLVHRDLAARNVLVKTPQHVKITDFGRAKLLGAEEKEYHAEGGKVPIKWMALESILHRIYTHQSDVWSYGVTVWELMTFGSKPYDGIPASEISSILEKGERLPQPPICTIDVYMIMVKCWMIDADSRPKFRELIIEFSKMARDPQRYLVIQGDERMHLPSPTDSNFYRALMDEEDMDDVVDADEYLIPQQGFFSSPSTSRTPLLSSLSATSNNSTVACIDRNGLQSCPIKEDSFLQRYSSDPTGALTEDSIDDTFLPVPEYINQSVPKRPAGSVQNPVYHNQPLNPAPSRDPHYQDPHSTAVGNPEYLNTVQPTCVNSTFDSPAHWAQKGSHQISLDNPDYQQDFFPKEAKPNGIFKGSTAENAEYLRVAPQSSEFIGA

NCI-H1975 = test: Antiproliferative activity against human NCI-H1975 cells incubated for 72 hrs by SRB assay; assay type: functional, cell-based; settings: NCI-H1975, 72 h
[2] = biological target: Epidermal growth factor receptor (Homo sapiens, UniProt P00533); test: Inhibition of wild type EGFR kinase domain (unknown origin) expressed using baculovirus expression system incubated for 1 hr using Poly(Glu,Tyr) 4:1 by ELISA method
Sequence of Epidermal growth factor receptor (Homo sapiens, UniProt P00533) (P00533 whole entry, the tested form may be a part): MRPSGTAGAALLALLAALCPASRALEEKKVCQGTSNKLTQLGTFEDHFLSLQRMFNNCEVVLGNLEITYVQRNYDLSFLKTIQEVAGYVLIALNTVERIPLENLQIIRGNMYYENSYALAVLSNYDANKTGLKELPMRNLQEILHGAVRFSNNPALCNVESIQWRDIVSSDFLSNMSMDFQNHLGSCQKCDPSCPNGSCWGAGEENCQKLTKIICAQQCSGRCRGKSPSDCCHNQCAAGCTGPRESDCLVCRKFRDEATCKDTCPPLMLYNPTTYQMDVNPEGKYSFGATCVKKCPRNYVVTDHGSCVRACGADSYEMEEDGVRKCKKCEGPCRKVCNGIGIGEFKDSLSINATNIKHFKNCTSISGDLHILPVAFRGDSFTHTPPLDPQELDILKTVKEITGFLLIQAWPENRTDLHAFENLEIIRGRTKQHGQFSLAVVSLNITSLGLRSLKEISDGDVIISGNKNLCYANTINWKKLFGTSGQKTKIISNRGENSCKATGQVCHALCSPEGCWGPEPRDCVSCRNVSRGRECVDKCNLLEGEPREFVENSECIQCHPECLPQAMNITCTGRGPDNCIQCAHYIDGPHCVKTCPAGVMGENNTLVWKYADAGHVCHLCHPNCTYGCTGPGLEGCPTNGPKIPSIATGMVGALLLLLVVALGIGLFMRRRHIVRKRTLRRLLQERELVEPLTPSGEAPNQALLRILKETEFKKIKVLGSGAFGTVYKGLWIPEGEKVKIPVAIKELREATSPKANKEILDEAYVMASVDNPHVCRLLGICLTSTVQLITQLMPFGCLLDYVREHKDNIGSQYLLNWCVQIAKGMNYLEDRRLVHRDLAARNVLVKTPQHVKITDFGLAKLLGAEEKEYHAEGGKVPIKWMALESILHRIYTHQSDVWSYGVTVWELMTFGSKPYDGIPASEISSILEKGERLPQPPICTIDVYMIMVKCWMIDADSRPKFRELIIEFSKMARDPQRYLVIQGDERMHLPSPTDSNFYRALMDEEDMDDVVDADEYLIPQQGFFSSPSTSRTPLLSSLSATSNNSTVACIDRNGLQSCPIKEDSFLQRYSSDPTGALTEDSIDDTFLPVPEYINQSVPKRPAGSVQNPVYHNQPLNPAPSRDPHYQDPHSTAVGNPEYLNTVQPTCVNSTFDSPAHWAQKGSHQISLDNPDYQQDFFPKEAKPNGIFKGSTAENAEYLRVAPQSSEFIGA

A-431 [3] = test: Antiproliferative activity against human A431 cells incubated for 72 hrs by SRB assay; assay type: functional, cell-based; settings: A-431, 72 h
[4] = Dissociation constant, pKa of the compound by Sirius T3 based assay; assay type: physicochemical
[5] = Thermodynamic solubility of the compound in 0.1M PBS buffer at pH 7.4 by UV-visible spectrophotometry; assay type: physicochemical; settings: read-out: Therm_solubility
A-431 [6] = test: Antitumor activity against human A431 cells xenografted in BALB/c mouse assessed as inhibition of tumor growth at 25 mg/kg, po qd for 14 consecutive days; assay type: functional; settings: A-431, po, read-out: TGI

Compound | IC50 [1] [nM] | IC50 (NCI-H1975) [nM] | IC50 [2] [nM] | IC50 (A-431 [3]) [nM] | pKa [4] | solubility thermodynamic [5] [µg/mL] | inhibition in vivo at 25 mg/kg (A-431 [6]) [%]
C=CC(=O)Nc1cccc(-n2c(=O)c(=O)[nH]c3cnc(Nc4ccc(N5CCN(C)CC5)cc4OC)nc32)c1 | 2.5 | > 10000 | 2.8 | > 10000 | 7.8 | 839 (≈ 1590 µM) | –
C=CC(=O)Nc1cccc(-n2c(=O)c(=O)n(C(C)C)c3cnc(Nc4ccc(N(C)CCN(C)C)cc4OC)nc32)c1 | 17 | 440 | 223 | 1530 | 8.9 | 1620 (≈ 2830 µM) | –
C=CC(=O)Nc1cccc(-n2c(=O)c(=O)n(CC)c3cnc(Nc4ccc(N5CCN(C)CC5)cc4OC)nc32)c1 | 1.2 | 126 | 81 | 8820 | 7.4 | < 10 | –
C=CC(=O)Nc1cccc(-n2c(=O)c(=O)n(C(C)C)c3cnc(Nc4ccc(N5CCN(C)CC5)c(C)c4)nc32)c1 | 1.5 | 151 | 1.4 | 309 | 8.1 | 190 (≈ 343 µM) | –
CN(C)C/C=C/C(=O)Nc1cc2c(Nc3ccc(F)c(Cl)c3)ncnc2cc1O[C@H]1CCOC1 [AFATINIB] | – | – | – | – | – | – | 94
C=CC(=O)Nc1cccc(-n2c(=O)c(=O)n(C(C)C)c3cnc(Nc4ccc(N5CCN(C)CC5)c(OC)c4)nc32)c1 | 1.3 | 213 | 8.6 | 669 | 8.4 | 298 (≈ 522 µM) | –
C=CC(=O)Nc1cccc(-n2c(=O)c(=O)n(CCC)c3cnc(Nc4ccc(N5CCN(C)CC5)cc4OC)nc32)c1 | 0.6 | 119 | 2.2 | 2140 | 7.5 | < 10 | –
C=CC(=O)Nc1cccc(-n2c(=O)c(=O)n(C)c3cnc(Nc4ccc(N5CCN(C)CC5)cc4OC)nc32)c1 | 4.7 | 1770 | 474 | > 10000 | 7.3 | 392 (≈ 722 µM) | –
C=CC(=O)Nc1cccc(-n2c(=O)c(=O)n(C(C)C)c3cnc(Nc4ccc(N5CCC(N6CCN(C)CC6)CC5)cc4OC)nc32)c1 | 7.8 | 1190 | 28 | 2260 | 8.8 | 109 (≈ 167 µM) | –
C=CC(=O)Nc1cccc(-n2c(=O)c(=O)n(C(C)C)c3cnc(Nc4ccc(OCCN(C)C)cc4OC)nc32)c1 | 143 | 415 | 68 | 1500 | 8.8 | 437 (≈ 781 µM) | –
